Values quoted from earlier work in article PMC10608500 (Marine Drugs, 2023).
Read-outs that look alike come from different tables or passages of the source.

Columns and labels:
[1] = Table 1
[2] = test system: U937 human histiocytic lymphoma cells; design: method as in PMID 34986303; conditions: read-out: IC50 against U937 cells
[3] = test system: CCRF-CEM human T lymphoblast cells; design: method as in PMID 34986303; conditions: read-out: IC50 against CCRF-CEM cells
[4] = from Oscillatoria sp., ref Li, T et al. 20
[5] = from Oscillatoria agardhii, ref Murakami, M et al. 21

Row | Substance | Activities [1, 4] | IC50 [2] | IC50 [3] | Activities [1, 5] | further results
1 | amantamide A | CXCR7 agonist, cytotoxic | 6.1 µM | 8.3 µM | – | –
2 | prenylagaramide A | – | – | – | no biological activity | –
3 | sepiatocin | – | – | – | – | Activities ([1]; from Sepia officinalis, ref Henry, J et al. 22): muscle contractile activity modulator (sepiatocin)
4 | prenylagaramide B | – | – | – | no biological activity | –
5 | amantamide B | CXCR7 agonist, cytotoxic | 7.3 µM | 5.6 µM | – | –
6 | heptavalinamide A | – | – | – | – | Activities ([1]; from Symploca sp., ref Suo, R et. al. 19): cytotoxic
